Results: PMC7584160 (Environmental Health Perspectives, 2020)
Read-outs that look alike come from different tables or passages of the source. Each block holds one molecule with its values, some of them ahead of it.

How the values were obtained:
[1] = biological target: T1, human thyroxine-binding globulin (TBG) (Homo sapiens, UniProt P05543); assay: TBG fluorescence polarization competitive binding assay (F-T4 probe); details: 100 nM TBG, 50 nM F-T4; up to 50 μM competitor
T1 construct: purchased Calbiochem 612075
T1 sequence (P05543 21-415): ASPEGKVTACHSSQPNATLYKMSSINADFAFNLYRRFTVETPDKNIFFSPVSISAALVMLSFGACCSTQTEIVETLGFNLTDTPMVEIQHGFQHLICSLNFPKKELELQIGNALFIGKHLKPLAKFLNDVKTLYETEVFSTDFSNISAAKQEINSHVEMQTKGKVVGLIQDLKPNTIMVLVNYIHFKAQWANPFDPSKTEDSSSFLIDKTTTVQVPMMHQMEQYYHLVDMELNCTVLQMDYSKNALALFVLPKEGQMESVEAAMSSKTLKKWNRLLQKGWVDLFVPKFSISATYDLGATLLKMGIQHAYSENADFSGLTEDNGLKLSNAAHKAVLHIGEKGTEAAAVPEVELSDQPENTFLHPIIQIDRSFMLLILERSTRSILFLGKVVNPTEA

human TRα-LBD = biological target: T2, human TRα-LBD (Homo sapiens, UniProt P10827); assay: TRα-LBD fluorescence polarization competitive binding assay (F-T3 probe)
T2 sequence (P10827 163-410 isoform P10827-2 limits assumed): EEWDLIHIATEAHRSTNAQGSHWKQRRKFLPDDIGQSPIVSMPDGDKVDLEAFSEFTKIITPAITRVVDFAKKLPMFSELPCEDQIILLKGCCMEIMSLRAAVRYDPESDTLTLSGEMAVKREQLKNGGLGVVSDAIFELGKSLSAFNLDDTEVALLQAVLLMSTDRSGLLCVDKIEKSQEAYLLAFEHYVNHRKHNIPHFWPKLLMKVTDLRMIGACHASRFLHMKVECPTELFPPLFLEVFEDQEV

human TRβ-LBD = biological target: T3, human TRβ-LBD (Homo sapiens, UniProt P10828); assay: TRβ-LBD fluorescence polarization competitive binding assay (F-T3 probe)
T3 construct: purchased Zhongding Biotechnology Co. Ltd
T3 sequence (P10828 217-461 limits assumed): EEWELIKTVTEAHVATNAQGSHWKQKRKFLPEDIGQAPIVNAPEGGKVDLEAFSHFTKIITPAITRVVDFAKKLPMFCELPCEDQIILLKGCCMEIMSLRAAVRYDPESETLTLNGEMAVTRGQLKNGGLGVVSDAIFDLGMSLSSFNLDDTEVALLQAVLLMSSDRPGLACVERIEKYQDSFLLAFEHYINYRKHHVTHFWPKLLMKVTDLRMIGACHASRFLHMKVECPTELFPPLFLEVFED

GH3 cells [2] = assay: GH3 cell proliferation assay (individual exposure, with or without amiodarone); assay type: cell-based, rat; details: 96 h; for LOEC for GH3 cell proliferation: individual exposure
GH3 cells [3] = assay: GH3 cell proliferation assay in the presence of 10 nM T3; assay type: cell-based, rat
[4] = biological target: T4, human transthyretin (TTR) (Homo sapiens, UniProt P02766); assay: TTR fluorescence polarization competitive binding assay (F-T4 probe); details: for TTR RBP (relative binding potency): IC50 of TBBPA divided by that of competitor, TBBPA set as 1.00
T4 construct: purchased Calbiochem 529577

[5] = IC20 of TBBPA divided by that of competitor, TBBPA set as 1.00
[6] = […] nM TRα-LBD, 50 nM F-T3, pH 7.5, 25°C, linear interpolation, read-out: TRα-LBD IC20
[7] = […] nM TRβ-LBD, 50 nM F-T3, pH 7.5, 25°C, linear interpolation, read-out: TRβ-LBD IC20
[8] = […] nM TTR, 50 nM F-T4, pH 7.5, 25°C, linear interpolation, read-out: TTR IC50 (converted)
[9] = co-exposed with 10 nM T3, mass concentration

- Binding to TBG [1]: did not bind
- TRα-LBD RBP (human TRα-LBD; [5]): 1.00
- IC20 (human TRα-LBD; [6]): 1500 nM
- TRβ-LBD RBP (human TRβ-LBD; [5]): 1.00
- IC20 (human TRβ-LBD; [7]): 5000 nM
Structure (SMILES): CC(C)(c1cc(Br)c(O)c(Br)c1)c1cc(Br)c(O)c(Br)c1 [TBBPA, Tetrabromobisphenol A, reference compound]
- Highest activity of GH3 proliferation induction (GH3 cells [2]; individual exposure 0.3-10 μM, relative to 0.1% DMSO control): 137%
- LOEC for GH3 cell proliferation (GH3 cells [2]): 2.5 µM
- LOEC for enhancing T3-induced GH3 cell proliferation (GH3 cells [3]; co-exposed with 10 nM T3): 2.5 µM
- Enhancement of T3-induced GH3 cell proliferation effect (GH3 cells [3]; co-exposed with 10 nM T3, 96 h): 20%

Structure (SMILES): C=CCOc1c(Br)cc(C(C)(C)c2cc(Br)c(OCC=C)c(Br)c2)cc1Br [TBBPA-BAE, TBBPA-bis(allyl ether)]
- Inhibition of T3-induced GH3 cell proliferation effect (GH3 cells [3]; co-exposed with 10 nM T3): ~60%

Structure (SMILES): CC(C)(c1cc(Br)c(OCC(Br)CBr)c(Br)c1)c1cc(Br)c(OCC(Br)CBr)c(Br)c1 (centres unmarked) [TBBPA-BDBPE, TBBPA-bis(2,3-dibromopropyl ether)]
- Effect on T3-induced GH3 cell proliferation (GH3 cells [3]; co-exposed with 10 nM T3): no effect

Structure (SMILES): CC(C)(c1cc(Br)c(OCC2CO2)c(Br)c1)c1cc(Br)c(OCC2CO2)c(Br)c1 (centres unmarked) [TBBPA-BGE, TBBPA-bis(glycidyl ether)]
- TRβ-LBD RBP (human TRβ-LBD; [5]): 0.20
- IC20 (human TRβ-LBD; [7]): 25000 nM
- Inhibition of T3-induced GH3 cell proliferation effect (GH3 cells [3]; co-exposed with 10 nM T3): approximately 80%

Structure (SMILES): C=CCOc1c(Br)cc(C(C)(C)c2cc(Br)c(O)c(Br)c2)cc1Br [TBBPA-MAE, TBBPA-mono(allyl ether)]
- TTR RBP (relative binding potency) [4]: 2.00
- IC50 [4, 8]: 100 nM
- TTR-binding potency, fold higher than T4 ([4]; compared with T4): 2 fold
- TTR-binding potency, fold greater than TBBPA ([4]; compared with TBBPA): 2 fold
- IC50 ([4]; mass concentration given beside the μM value, read-out: TTR IC50 (converted)): 97.6 nM
- TRα-LBD RBP (human TRα-LBD; [5]): 0.25
- IC20 (human TRα-LBD; [6]): 6000 nM
- IC20 (human TRα-LBD; mass concentration given beside the μM value, read-out: TRα-LBD IC20): 3.4 µg/mL
- TRβ-LBD RBP (human TRβ-LBD; [5]): 1.25
- IC20 (human TRβ-LBD; [7]): 4000 nM
- IC20 (human TRβ-LBD; mass concentration given beside the μM value, read-out: TRβ-LBD IC20): 2.3 µg/mL

Structure (SMILES): CC(C)(c1cc(Br)c(O)c(Br)c1)c1cc(Br)c(OCC(Br)CBr)c(Br)c1 (centres unmarked) [TBBPA-MDBPE, TBBPA-mono(2,3-dibromopropyl ether)]
- TTR RBP (relative binding potency) [4]: 0.20
- IC50 ([4]; TTR IC50, […] nM TTR, 50 nM F-T4, pH 7.5, 25°C, linear interpolation): 1000 nM
- IC50 ([4]; TTR IC50, mass concentration given beside the μM value): 990 nM
- TTR-binding potency, fold lower than natural ligand T4 ([4]; compared with T4): ~5 fold
- TRα-LBD RBP (human TRα-LBD; [5]): 0.03
- IC20 (human TRα-LBD; pH 7.5, read-out: TRα-LBD IC20): 50000 nM
- IC20 (human TRα-LBD; read-out: TRα-LBD IC20): 36.8 µg/mL
- TRβ-LBD RBP (human TRβ-LBD; [5]): 0.25
- IC20 (human TRβ-LBD; pH 7.5, read-out: TRβ-LBD IC20): 20000 nM
- IC20 (human TRβ-LBD; read-out: TRβ-LBD IC20): 14.7 µg/mL
- LOEC for GH3 cell proliferation (GH3 cells [2]): 0.3 µM
- LOEC for GH3 cell proliferation (GH3 cells [2]; mass concentration): 220 µg/L
- LOEC for enhancing T3-induced GH3 cell proliferation (GH3 cells [3]; co-exposed with 10 nM T3): 0.3 µM
- LOEC for enhancing T3-induced GH3 cell proliferation (GH3 cells [3]; [9]): 220 µg/L

Structure (SMILES): CC(C)(c1cc(Br)c(O)c(Br)c1)c1cc(Br)c(OCC2CO2)c(Br)c1 (centres unmarked) [TBBPA-MGE, TBBPA-mono(glycidyl ether)]
- TTR RBP (relative binding potency) [4]: 0.40
- IC50 [4, 8]: 500 nM
- TTR-binding potency, fold lower than natural ligand T4 ([4]; compared with T4): approximately 2 fold
- TRα-LBD RBP (human TRα-LBD): 0.18
- IC20 (human TRα-LBD; [6]): 8000 nM
- TRβ-LBD RBP (human TRβ-LBD): 0.83
- IC20 (human TRβ-LBD; [7]): 6000 nM
- LOEC for GH3 cell proliferation (GH3 cells [2]): 2.5 µM
- LOEC for GH3 cell proliferation (GH3 cells [2]; mass concentration): 1400 µg/L
- LOEC for enhancing T3-induced GH3 cell proliferation (GH3 cells [3]; co-exposed with 10 nM T3): 1.2 µM
- LOEC for enhancing T3-induced GH3 cell proliferation (GH3 cells [3]; [9]): 700 µg/L
